Data published in ChEMBL document CHEMBL6087458, “The Discovery of a Novel AXL/Triple Angiokinase Inhibitor Based on 6-Chloro-Substituted Indolinone and Side Chain Methyl Substitution Inhibiting Pancreatic Cancer Growth and Metastasis” (J Med Chem, 2025).
Calls of active or inactive are those of the source. No cut-off for these calls is given here.

Columns and labels:
[1] = Cytotoxicity against mouse NIH/3T3 cells assessed as cell viability incubated for 72 hrs by MTT assay; type: toxicity, cell-based, NIH3T3
[2] = Cytotoxicity against human HUVEC cells assessed as cell viability incubated for 72 hrs by MTT assay; type: toxicity, cell-based
[3] = target: BDNF/NT-3 growth factors receptor (Homo sapiens) (UniProt Q16620); experiment: Inhibition of TRKB (unknown origin) by envision reader analysis
[4] = target: Tyrosine-protein kinase ABL1 (Homo sapiens) (UniProt P00519); experiment: Inhibition of ABL1 (unknown origin) by envision reader analysis
[5] = target: Fibroblast growth factor receptor (Homo sapiens) (UniProt P22607+P11362+P22455+P21802); experiment: Inhibition of FGFR (unknown origin) by envision reader analysis; type: protein assay
BXPC-3 [6] = experiment: Effect on AXL expression in human BXPC-3 cells; type: functional, cell-based
HUVEC [7] = experiment: Inhibition of cell migration in human HUVEC cells assessed as decrease in migrating cells at 0.5 uM incubated for 24 hrs by wound healing assay; type: functional, cell-based
HUVEC [8] = experiment: Anti-angiogenesis activity in HUVEC assessed as reduction in tube formation at 0.5 to 2 uM incubated for 24 hrs by Calcein AM staining based light microscopic analysis; type: functional, cell-based; settings: Homo sapiens, dose 0.5-2 µM
HUVEC [9] = experiment: Anti-angiogenesis activity in HUVEC assessed as reduction in number of vascular nodes at 0.5 to 2 uM incubated for 24 hrs by Calcein AM staining based light microscopic analysis; type: functional, cell-based; settings: Homo sapiens, dose 0.5-2 µM
HUVEC [10] = experiment: Effect on VEGFR expression in HUVEC cells at 0.5 to 2 uM incubated for 24 to 72 hrs by immunofluorescence assay; type: functional, cell-based; settings: Homo sapiens, dose 0.5-2 µM, time 24-72 hrs
NIH3T3 [11] = experiment: Antiproliferative activity against mouse NIH/3T3 cells cultured as 3D tumor spheroids assessed as reduction in pseudopodia on cell surface; type: functional, cell-based
Mitochondrial membrane [12] = experiment: Induction of mitochondrial membrane potential in mouse NIH/3T3 cells assessed as decrease in red fluorescence intensity incubated for 48 hrs by JC-1 staining based flow cytometry; type: cell membranes
Mitochondrial membrane [13] = experiment: Induction of mitochondrial membrane potential in mouse NIH/3T3 cells assessed as increase in green fluorescence intensity incubated for 48 hrs by JC-1 staining based flow cytometry; type: cell membranes
NIH3T3 [14] = experiment: Anti-fibrotic activity in mouse NIH3T3 cells assessed as reduction in fibronectin expression incubated for 48 hrs by Western blot analysis; type: functional, cell-based
MDA-MB-231 [15] = experiment: Inhibition of colony formation in human MDA-MB-231 cells at 0.5 uM incubated for 72 hrs; type: functional, cell-based
MDA-MB-231 [16] = experiment: Down regulation of Ki67 expression in human MDA-MB-231 cells by immunofluorescence assay; type: functional, cell-based
[17] = target: Signal transducer and activator of transcription 3 (Homo sapiens) (UniProt P40763); experiment: Inhibition of STAT3 phosphorylation in human BXPC-3 cells incubated for 24 to 72 hrs by Western blot analysis; type: cell-based; settings: dose <= 5.0 µM, time 24-72 hrs
MDA-MB-231 [18] = settings: Homo sapiens, MDA-MB-231, 168 h
MDA-MB-231 [19] = experiment: Induction of apoptosis in human MDA-MB-231 cells by annexin V-FITC/propidium iodide staining-based flow cytometry analysis; type: functional, cell-based
Mitochondrial membrane [20] = experiment: Induction of mitochondrial membrane potential depolarization in human MDA-MB-231 cells at 0.2 to 0.5 uM incubated for 24 hrs by JC-1 staining based flow cytometry analysis; type: cell membranes; settings: dose 0.2-0.5 µM
Mitochondrial membrane [21] = experiment: Induction of mitochondrial membrane potential depolarization in human BXPC-3 cells at 0.2 to 0.5 uM incubated for 24 hrs by JC-1 staining based flow cytometry analysis; type: cell membranes; settings: dose 0.2-0.5 µM
BXPC-3 [22] = experiment: Induction of apoptosis in human BXPC-3 cells assessed as increase in BAX expression at 0.1 to 1 uM incubated for 24 hrs by Western blot analysis; type: functional, cell-based; settings: dose 0.1-1 µM
MDA-MB-231 [23] = experiment: Induction of apoptosis in human MDA-MB-231 cells assessed as decrease in Bcl-2 expression at 0.1 to 1 uM incubated for 24 hrs by Western blot analysis; type: functional, cell-based; settings: dose 0.1-1 µM
MDA-MB-231 [24] = experiment: Inhibition of cell migration in human MDA-MB-231 cells assessed as decrease in cell migration incubated for 24 hrs by wound healing assay; type: functional, cell-based
BXPC-3 [25] = experiment: Antitumor activity against human BXPC-3 cells xenografted in mouse assessed as tumor growth inhibition at 25 mg/kg, po administered for 14 days; type: functional; settings: BXPC-3, 336 h, time 14 day, read-out: TGI
BXPC-3 [26] = experiment: Antitumor activity against human BXPC-3 cells xenografted in mouse assessed as reduction in tumor weight at 50 mg/kg, po administered for 14 days; type: functional; set-up: scale not given: the % may be the effect or the level left; settings: time 14 day
BXPC-3 [27] = experiment: Antitumor activity against human BXPC-3 cells xenografted in mouse assessed as reduction in tumor weight at 25 mg/kg, po administered for 14 days; type: functional; set-up: scale not given: the % may be the effect or the level left; settings: time 14 day
[28] = Toxicity in mouse implanted with human BXPC-3 cells assessed as body weight loss at 25 to 50 mg/kg, po measured on day 11; type: organism-based; settings: in vivo, 264 h, dose 25-50 mg/kg, time 11 day
[29] = Toxicity in mouse implanted with human BXPC-3 cells assessed as mortality at 25 to 50 mg/kg, po measured on day 11; type: organism-based; settings: in vivo, 264 h, dose 25-50 mg/kg, time 11 day
BXPC-3 [30] = experiment: Antitumor activity against human BXPC-3 cells xenografted in mouse assessed as reduction in Ki67 expression in tumor at 25 to 50 mg/kg, po administered for 14 days; type: functional, organism-based; settings: dose 25-50 mg/kg, time 14.0 day
BXPC-3 [31] = experiment: Antitumor activity against human BXPC-3 cells xenografted in mouse assessed as effect on E-cadherin expression in tumor at 25 to 50 mg/kg, po administered for 14 days; type: functional, organism-based; settings: dose 25-50 mg/kg, time 14.0 day
[32] = Toxicity in mouse implanted with human BXPC-3 cells assessed as heart damage at 50 mg/kg, po by H and E staining based analysis; type: organism-based; settings: in vivo
[33] = Toxicity in mouse implanted with human BXPC-3 cells assessed as kidney damage at 50 mg/kg, po by H and E staining based analysis; type: organism-based; settings: in vivo
[34] = Cytotoxicity against human HK-2 cells assessed as inhibition of cell growth; type: toxicity, cell-based
[35] = Cytotoxicity against human MCF-10A cells assessed as inhibition of cell growth; type: toxicity, cell-based
[36] = Metabolic stability in rat liver microsome assessed as half life measured upto 240 mins by HPLC analysis; type: ADME; settings: liver microsomes
[37] = Tmax in Sprague-Dawley rat at 50 mg/kg, po; type: ADME, organism-based; settings: in vivo
[38] = Cmax in Sprague-Dawley rat at 50 mg/kg, po; type: ADME, organism-based; settings: in vivo
[39] = Half life in Sprague-Dawley rat at 50 mg/kg, po; type: ADME, organism-based; settings: in vivo
[40] = Clearance in Sprague-Dawley rat at 5 mg/kg, iv; type: ADME, organism-based; settings: in vivo
[41] = Oral bioavailability in Sprague-Dawley rat at 50 mg/kg; type: ADME, organism-based; settings: Sprague-Dawley, in vivo
MKN-45 = experiment: cells; settings: Homo sapiens, MKN-45, 72 h
Description: Antiproliferative activity against human MKN-45 cells assessed as cell viability incubated for 72 hrs by MTT assay

NCI-H1975 = experiment: cells; settings: Homo sapiens, NCI-H1975, 72 h
Description: Antiproliferative activity against human NCI-H1975 cells assessed as cell viability incubated for 72 hrs by MTT assay

A549 = experiment: cells; settings: Homo sapiens, A549, 72 h
Description: Antiproliferative activity against human A549 cells assessed as cell viability incubated for 72 hrs by MTT assay

Sequence of Signal transducer and activator of transcription 3 (Homo sapiens) (P40763 whole entry): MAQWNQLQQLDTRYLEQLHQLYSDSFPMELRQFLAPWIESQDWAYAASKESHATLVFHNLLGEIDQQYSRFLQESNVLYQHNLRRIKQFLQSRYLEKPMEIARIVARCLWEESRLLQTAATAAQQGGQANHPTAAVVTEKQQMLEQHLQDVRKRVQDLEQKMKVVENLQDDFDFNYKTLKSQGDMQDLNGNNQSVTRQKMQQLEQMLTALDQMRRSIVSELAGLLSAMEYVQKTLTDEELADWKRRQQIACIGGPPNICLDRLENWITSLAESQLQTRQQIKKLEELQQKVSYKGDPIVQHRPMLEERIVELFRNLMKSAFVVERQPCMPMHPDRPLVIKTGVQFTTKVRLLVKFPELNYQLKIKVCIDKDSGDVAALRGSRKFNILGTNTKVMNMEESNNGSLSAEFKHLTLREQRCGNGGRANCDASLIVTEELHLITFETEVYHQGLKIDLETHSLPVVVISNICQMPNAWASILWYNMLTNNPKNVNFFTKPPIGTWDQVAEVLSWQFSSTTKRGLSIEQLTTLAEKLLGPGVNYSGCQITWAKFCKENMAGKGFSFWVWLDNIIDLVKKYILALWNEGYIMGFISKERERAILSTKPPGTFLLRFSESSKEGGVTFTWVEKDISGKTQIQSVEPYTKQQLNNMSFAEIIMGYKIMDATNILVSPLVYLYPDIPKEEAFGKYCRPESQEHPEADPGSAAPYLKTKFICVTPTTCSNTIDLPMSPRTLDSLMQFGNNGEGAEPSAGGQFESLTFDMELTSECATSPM
Sequence of Tyrosine-protein kinase ABL1 (Homo sapiens) (P00519 whole entry): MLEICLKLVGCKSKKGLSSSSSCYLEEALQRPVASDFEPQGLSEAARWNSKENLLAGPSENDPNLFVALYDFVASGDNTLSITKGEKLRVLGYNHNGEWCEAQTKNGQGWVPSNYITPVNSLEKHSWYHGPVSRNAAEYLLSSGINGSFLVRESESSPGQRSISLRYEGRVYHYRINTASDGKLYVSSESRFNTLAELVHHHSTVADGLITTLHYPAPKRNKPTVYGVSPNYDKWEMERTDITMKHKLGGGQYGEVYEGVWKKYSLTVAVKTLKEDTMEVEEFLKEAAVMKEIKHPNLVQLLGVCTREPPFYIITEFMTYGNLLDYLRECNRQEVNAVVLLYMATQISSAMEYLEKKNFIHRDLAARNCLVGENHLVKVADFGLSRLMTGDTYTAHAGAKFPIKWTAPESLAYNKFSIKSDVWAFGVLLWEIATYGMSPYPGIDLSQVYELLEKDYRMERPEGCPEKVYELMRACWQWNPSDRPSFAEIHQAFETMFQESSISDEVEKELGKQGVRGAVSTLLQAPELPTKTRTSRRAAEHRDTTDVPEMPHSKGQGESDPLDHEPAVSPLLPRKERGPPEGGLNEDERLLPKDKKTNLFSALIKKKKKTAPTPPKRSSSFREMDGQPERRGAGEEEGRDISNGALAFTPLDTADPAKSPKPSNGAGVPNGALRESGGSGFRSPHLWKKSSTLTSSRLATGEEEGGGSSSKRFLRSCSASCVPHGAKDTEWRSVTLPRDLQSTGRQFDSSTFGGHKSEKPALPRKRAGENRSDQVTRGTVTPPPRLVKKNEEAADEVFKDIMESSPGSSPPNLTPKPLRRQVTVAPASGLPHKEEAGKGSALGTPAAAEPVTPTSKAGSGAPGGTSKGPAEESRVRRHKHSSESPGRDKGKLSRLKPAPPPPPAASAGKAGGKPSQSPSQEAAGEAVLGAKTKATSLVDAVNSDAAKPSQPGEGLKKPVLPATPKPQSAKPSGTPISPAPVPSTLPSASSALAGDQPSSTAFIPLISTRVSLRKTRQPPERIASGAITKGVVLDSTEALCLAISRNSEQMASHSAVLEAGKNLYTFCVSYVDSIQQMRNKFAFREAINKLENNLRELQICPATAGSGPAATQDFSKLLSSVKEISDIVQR
Sequence of BDNF/NT-3 growth factors receptor (Homo sapiens) (Q16620 32-822 limits assumed): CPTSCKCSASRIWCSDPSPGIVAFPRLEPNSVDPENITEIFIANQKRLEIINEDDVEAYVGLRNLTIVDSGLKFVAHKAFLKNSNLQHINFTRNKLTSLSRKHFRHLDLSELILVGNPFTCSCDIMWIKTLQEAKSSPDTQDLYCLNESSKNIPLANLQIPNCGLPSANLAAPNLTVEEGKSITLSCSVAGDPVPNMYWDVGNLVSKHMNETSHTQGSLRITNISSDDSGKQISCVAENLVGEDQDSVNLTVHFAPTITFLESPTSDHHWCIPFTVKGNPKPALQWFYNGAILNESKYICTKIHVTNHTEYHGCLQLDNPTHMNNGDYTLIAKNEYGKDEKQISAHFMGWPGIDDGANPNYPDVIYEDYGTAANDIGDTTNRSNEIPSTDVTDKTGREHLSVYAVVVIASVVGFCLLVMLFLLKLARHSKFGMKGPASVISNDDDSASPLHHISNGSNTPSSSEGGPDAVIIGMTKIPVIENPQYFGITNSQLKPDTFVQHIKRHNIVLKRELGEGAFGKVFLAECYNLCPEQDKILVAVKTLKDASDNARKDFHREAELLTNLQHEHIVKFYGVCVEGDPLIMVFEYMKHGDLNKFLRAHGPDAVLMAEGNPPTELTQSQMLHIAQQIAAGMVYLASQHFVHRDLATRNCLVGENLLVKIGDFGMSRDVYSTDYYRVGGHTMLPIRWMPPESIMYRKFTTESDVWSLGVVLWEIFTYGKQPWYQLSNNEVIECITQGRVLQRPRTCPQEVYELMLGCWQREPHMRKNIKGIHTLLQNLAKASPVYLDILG

SMILES: CCN1CCN(C(C)C(=O)N(C)c2ccc(N/C(=C3\C(=O)Nc4cc(Cl)ccc43)c3ccccc3)cc2)CC1 (racemic)
- IC50 at 72 h [1]: 1140 nM
- IC50 at 72 h [2]: 430 nM
- inhibition [3]: Active
- inhibition [4]: Active
- inhibition [5]: Active
- Activity (BXPC-3 [6]): Active
- inhibition (HUVEC [7]): Active
- Activity (HUVEC [8]): Active
- Activity (HUVEC [9]): Active
- Activity (HUVEC [10]): Active
- Activity (NIH3T3 [11]): Active
- Activity (Mitochondrial membrane [12]): Active
- Activity (Mitochondrial membrane [13]): Active
- Activity (NIH3T3 [14]): Active
- inhibition (MDA-MB-231 [15]): Active
- Activity (MDA-MB-231 [16]): Active
- inhibition [17]: Dose-dependent-effect
- IC50 (MDA-MB-231 [18]): 2220 nM
- Activity (MDA-MB-231 [19]): Active
- Activity (Mitochondrial membrane [20]): Active
- Activity (Mitochondrial membrane [21]): Active
- Activity (BXPC-3 [22]): Active
- Activity (MDA-MB-231 [23]): Active
- inhibition (MDA-MB-231 [24]): Active
- inhibition in vivo at 25 mg/kg (BXPC-3 [25]): 96.7%
- Activity (BXPC-3 [26]): 56.46%
- Activity (BXPC-3 [27]): 71%
- Activity [28]: Non-toxic
- Activity [29]: Non-toxic
- AC30 (BXPC-3 [30]): Active
- Activity (BXPC-3 [31]): Active
- Activity [32]: Non-toxic
- Activity [33]: Non-toxic
- IC50 [34]: 8350 nM
- IC50 [35]: > 10000 nM
- half-life [36]: 0.518 h
- Tmax [37]: 8 h
- Cmax [38]: 88 ng/mL
- half-life [39]: 18.8 h
- clearance [40]: 46.5 mL/min/kg
- bioavailability [41]: 6.53%
- IC50 (MKN-45): 1260 nM
- IC50 (NCI-H1975): 4380 nM
- IC50 (A549): 250 nM
